Test system: sulfur producing enzymes
Assay: H2S production (colour of sample) by sterile, enzyme-containing SRB supernatant after treatment with inhibitors
Format: biochemical, sulfate-reducing bacteria (SRBs) from produced water sources
Details: sterile enzyme-containing supernatant in LB, 3 months at 37° C.
Method: Now turning to the Figures, FIG. 1 illustrates the ability of sterile solutions to produce hydrogen sulfide (H2S). Six samples were formed with the following procedure. Each sample includes 100 mL of lysogeny broth (LB) ([…] Tryptone, 5 mg/ml yeast extract, 5 mg/mL NaCl, pH 7.5). Sample A is the blank sample, i.e. no sulfur metabolizing enzymes were added. Samples B-D include 0.5 mL of cultured sulfate-reducing bacteria (SRBs) from produced water sources. […]
Sample E includes 0.5 mL of supernatant after the same cultured SRBs were additionally sonicated. A QSonic sonicator sonicated the cultured SRBs for one minute cycles at 70% amplitude. The cell debris was removed via centrifugation at 3000 RPM for 25 minutes. 0.5 mL of the remaining supernatant was added to Sample E.
The remaining supernatant was filtered through a […] pore size PVDF membrane. […]
Samples 1-9 included the same components as that of Sample F from Example 1, i.e. 0.5 mL of the sterile, enzyme-containing, supernatant. […] Samples 1-9 were incubated at 37° C. and monitored periodically. […]

SMILES | inactivation of sulfur producing enzymes
NC(=O)CI [Iodoacetamide, iodoacetamide] | effective in permanently inactivating enzymes
CCCCCCCCCCCCOS(=O)(=O)[O-].[Na+] [SDS, sodium dodecyl sulfate] | effective in permanently inactivating enzymes
